# Assay results: patent US20150093333A1, “COMPOSITIONS, METHODS AND USES FOR PEPTIDES IN DIAGNOSIS, PROGRESSION AND TREATMENT OF CANCERS” (THE REGENTS OF THE UNIVERSITY OF COLORADO, body corporate, priority 2003, published 2015)
# Where two headings read alike, the source gives them in different places. Where no end group is shown, it is not given here. [ ]: non-standard residue; d: D form. Lys(N3) = [N-]=[N+]=NCCCC[C@H](N)C(=O)O; Pra = C#CC[C@H](N)C(=O)O
# B1: C2AB: intact C2A-C2B cytoplasmic domains of rat Synaptotamin-1 (a.a. 96-421), positive control (protein, UniProt P21707 96-421, looked up, fragment)
# chain: GGKNAINMKDVKDLGKTMKDQALKDDDAETGLTDGEEKEEPKEEEKLGKLQYSLDYDFQNNQLLVGIIQAAELPALDMGGTSDPYVKVFLLPDKKKKFETKVHRKTLNPVFNEQFTFKVPYSELGGKTLVMAVYDFDRFSKHDIIGEFKVPMNTVDFGHVTEEWRDLQSAEKEEQEKLGDICFSLRYVPTAGKLTVVILEAKNLKKMDVGGLSDPYVKIHLMQNGKRLKKKKTTIKKNTLNPYYNESFSFEVPFEQIQKVQVVVTVLDYDKIGKNDAIGKVFVGYNSTGAELRHWSDMLANPRRPIAQWHTLQVEEEVDAMLAVKK
# B2: Syt1: Synaptotagmin-I, curvature-sensing protein used as positive control (protein, UniProt P21707 1-421, looked up)
# Synaptotagmin-1: MVSASHPEALAAPVTTVATLVPHNATEPASPGEGKEDAFSKLKQKFMNELHKIPLPPWALIAIAIVAVLLVVTCCFCVCKKCLFKKKNKKKGKEKGGKNAINMKDVKDLGKTMKDQALKDDDAETGLTDGEEKEEPKEEEKLGKLQYSLDYDFQNNQLLVGIIQAAELPALDMGGTSDPYVKVFLLPDKKKKFETKVHRKTLNPVFNEQFTFKVPYSELGGKTLVMAVYDFDRFSKHDIIGEFKVPMNTVDFGHVTEEWRDLQSAEKEEQEKLGDICFSLRYVPTAGKLTVVILEAKNLKKMDVGGLSDPYVKIHLMQNGKRLKKKKTTIKKNTLNPYYNESFSFEVPFEQIQKVQVVVTVLDYDKIGKNDAIGKVFVGYNSTGAELRHWSDMLANPRRPIAQWHTLQVEEEVDAMLAVKK
# Columns and labels:
# lipid vesicles [1] = assay: 1H NMR of C2B derived peptides treated with lipid vesicles; assay type: binding
# Experimental: To verify that the origin of the differential peptide interaction towards lipid vesicles is due to the innate property of the peptide itself and not due to the fluorophores, ^1H NMR spectrometry investigations to probe the interaction of C2B derived peptides were carried out.
# This observation is in contrast to NMR profiles of peptides that are known to interact with liposomes.
# [2] = test system: 8:2 POPC/POPS lipid vesicles; assay: Fluorescence enhancement assay of C2B derived peptides with lipid vesicles; assay type: binding; settings: for lipid vesicle binding and curvature sensing (fluorescence enhancement): 8:2 POPC/POPS vesicles 0.03 to 0.08 μm
# Experimental: In certain examples, lipid vesicles were prepared using extrusion through membranes with pore sizes of 30, 80, and 400 nm to cover a wide range of curvatures. […] A lipid film was deposited on a glass vial by blowing down to dryness with Ar or N2 a CHCl3 solution of the lipids (Avanti Polar Lipids), followed by the removal of residual organic solvent under vacuum for several hours. The lipid film was hydrated overnight at 4° C. in PBS pH 7.4, the lipid suspension of multilamellar vesicles were subjected to five freeze-thaw cycles (except for extrusion through 400 nm pores), and followed by extrusion through polycarbonate membranes with pore diameters of 30, 80, and 400 nm to produce the desired SUVs using […]. […] An increase in the observed fluorescence intensity and a blue shifted λem maximum are directly correlated to a change in the environment surrounding the peptide, e.g., from the polar aqueous solvent to the hydrophobic lipid vesicle, and indicate a peptide-lipid interaction. The peptides were prepared by microwave-assisted SPPS, purified by reversed phase HPLC, and characterized by MALDI-TOF-MS. […] An increase in the observed fluorescence intensity and a blue shifted λem maximum are directly correlated to a change in the environment surrounding the peptide, i.e., from the polar aqueous solvent to the hydrophobic lipid vesicle, indicating a peptide-lipid interaction. Lipid vesicles composed of 8:2 palmitoyl oleoyl phosphatidylcholine (POPC) and palmitoyl oleoyl phosphatidylserine (POPS) were used to represent the approximate phospholipid composition of cellular membranes. These vesicles were prepared by extruding a suspension of multilamellar lipid vesicles in PBS buffer (pH=7.4) through polycarbonate membranes. The diameters of these lipid vesicles were measured using dynamic light scattering (DLS) that was calibrated with 50 nm polystyrene beads. […] FIG. 2 illustrates exemplary fluorescence assays performed to assess the interaction of labeled-peptides on synthetic and biologically relevant lipid vesicles. […]
# lipid vesicles [3] = settings: cited from earlier work
# [4] = test system: synthetic vesicles of sizes 100 nm and 400 nm; assay: Cosedimentation assay of MARCKS-ED with synthetic vesicles; assay type: binding; settings: gel electrophoresis of supernatant and pellet
# Description: In another exemplary method, lipid vesicles were employed to the curvature-sensing behavior of the MARCKS derived peptides with various sizes and lipid components. The membrane curvature is defined as the reciprocal of the diameter of a particular particle, e.g., smaller-sized vesicles present highly curved membrane bilayers. A series of lipid models were made to represent various lipid components that closely resemble the lipid composition of biological membranes. […] Dynamic light scattering (DLS) and negative-stain transmission electron microscopy (TEM) were performed to confirm the different vesicle sizes following the pressure-controlled extrusion process through different membrane diameter pores. Commercial polystyrene beads were used as the calibration standard for the vesicle size validation experiments. Furthermore, a time-course experiment was carried out to confirm the stability of the vesicles up to 16 hours. Three different membrane diameters were extruded for the following biophysical characterizations: 30 nm, 100 nm, 400 nm, reflecting different membrane curvatures.
# In another exemplary method, a cosedimentation assay was performed to test the size differentiation behavior of MARCKS-ED. Two vesicle pore sizes, 100 and 400 nm, were used in this experiment because vesicles smaller than 100 nm were difficult to pellet even at high centrifugation speed. MARCKS-ED (10 μM) was incubated with 600 μM synthetic vesicles of sizes 100 nm and 400 nm. The positive control was the intact C2A-C2B cytoplasmic domains (C2AB) of rat Synaptotamin-1 (a.a. 96-421). C2AB (1.5 μM) was treated with CaCl2 (1 mM) and incubated with 300 μM synthetic vesicles of sizes 100 nm and 400 nm. C2AB treated with vesicles was incubated at room temperature for 30 minutes, followed by centrifugation of 65,000 rpm for 45 minutes at 20° C. MARCKS-ED treated with vesicles was incubated at room temperature for 2 hours, followed by 75,000 rpm for 45 minutes at 20° C. […]
Molecule,interaction with liposomes (1H NMR peak intensity) (lipid vesicles [1]; 0.03 μm vesicles),interaction with liposomes (1H NMR peak intensity) (lipid vesicles [1]; vesicles with d=55±6 nm),lipid vesicle binding and curvature sensing (fluorescence enhancement) [2],Kd (lipid vesicles [3]; 105 nm vesicles),other results
"Ac-GGDYDKIGKNDA-NH2 [C2B-Ac 3, linear 12-residue peptide derived from amino acids 363-372 of Syt1]",does not interact with the liposomes,weaker binding,,,
C2B-Cou 5: linear GGDYDKIGKNDA peptide N-terminally labeled with 7-hydroxycoumarin-3-carboxylic acid ({7‑hydroxycoumarin‑3‑carbonyl}-GGDYDKIGKNDA),are interacting with the lipid vesicles,,significant binding and curvature sensing property,,
C2B-Trp 4: linear GGDYDKIGKNDA peptide with N-terminal tryptophan (N-terminal tryptophan),are interacting with the lipid vesicles,,significant binding and curvature sensing property,,
"C2BL3C 1: 12-residue cyclic peptide from Syt1 C2B loop 3, Click cyclization of GGPraDYDKIGKNDANle(ε-N3) (GG[Pra]DYDKIGKNDA[Lys(N3)]-NH2; triazole (positions not given here); numbers in words are those of the source; also: Pra after Gly2 and Nle(ε-N3) after Ala12 joined by click triazole (head-to-tail side-chain cyclisation))",,also interacts with liposomes,,,
B1,,,,151 ± 6 µM,"increase in binding to smaller vesicles (105 nm) relative to the larger ones (252 nm) (lipid vesicles [3]): 1.9 fold; pull-down by 100 nm vs 400 nm PS-containing vesicles [4]: more MARCKS-ED or C2AB was pulled down by the 100 nm, PS-containing vesicles than by the larger 400 nm vesicles"
B2,,,,151 µM,"fluorescence enhancement ([2]; with 30 nm vesicles, FIG. 2a): 1.28±0.02 RFU; Kd (lipid vesicles [3]; 252 nm vesicles): 263 ± 180 µM"
